# Source: article PMC5572369 (Frontiers in Microbiology, 2017)
# Experiments:
# PrbP [1] = target: T1, PrbP (Candidatus Liberibacter asiaticus, UniProt A0ABM5NE52)
# T1 construct: gene WSI_01420
# PrbP [2] = target: T1, PrbP; remark: listed apart in the source
compound,measurement,setting,value
Cc1c(Cl)cccc1Nc1ccccc1C(=O)O [tolfenamic acid],concentration for complete disruption of PrbP/PrplK complex,PrbP [1],350 µM
same,% decrease in transcription at 500 μM,PrbP [2],79%
